Measured values as given in patent publication US20100204135A1, “USE OF LVV-HEMORPHIN-6 AND OPTIONALLY AF12198 AS THERAPEUTIC AGENT(S)” (priority 2007, published 2010).
Where no end group is shown, it is not given here.

Tested on: drug-resistant Mycobacterium tuberculosis
Experiment: Mycobacterium tuberculosis assay
Type: cell-based

Substance | inhibition of the growth of Mycobacterium tuberculosis
Leu-Val-Val-Tyr-Pro-Trp-Thr-Gln-Arg-OH (LVVYPWTQR-OH) [Peptide 1] | 100%
Phe-Glu-Trp-Thr-Pro-Gly-Tyr-Trp-Gln-Pro-Tyr-Ala-Leu-Pro-Leu-OH (FEWTPGYWQPYALPL-OH) [Peptide 2] | 100%
